Consider 25 compounds from patent publication US20260347338A1, “PYRIMIDINE/PYRIDINE DERIVATIVES OR SALTS THEREOF AND PHARMACEUTICAL COMPOSITIONS COMPRISING THE SAME” (YUHAN CORPORATION, priority 2023, published 2026).

Where a name gives a salt, the structure may show the parent alone.

T1 sequence (Q92918 whole entry): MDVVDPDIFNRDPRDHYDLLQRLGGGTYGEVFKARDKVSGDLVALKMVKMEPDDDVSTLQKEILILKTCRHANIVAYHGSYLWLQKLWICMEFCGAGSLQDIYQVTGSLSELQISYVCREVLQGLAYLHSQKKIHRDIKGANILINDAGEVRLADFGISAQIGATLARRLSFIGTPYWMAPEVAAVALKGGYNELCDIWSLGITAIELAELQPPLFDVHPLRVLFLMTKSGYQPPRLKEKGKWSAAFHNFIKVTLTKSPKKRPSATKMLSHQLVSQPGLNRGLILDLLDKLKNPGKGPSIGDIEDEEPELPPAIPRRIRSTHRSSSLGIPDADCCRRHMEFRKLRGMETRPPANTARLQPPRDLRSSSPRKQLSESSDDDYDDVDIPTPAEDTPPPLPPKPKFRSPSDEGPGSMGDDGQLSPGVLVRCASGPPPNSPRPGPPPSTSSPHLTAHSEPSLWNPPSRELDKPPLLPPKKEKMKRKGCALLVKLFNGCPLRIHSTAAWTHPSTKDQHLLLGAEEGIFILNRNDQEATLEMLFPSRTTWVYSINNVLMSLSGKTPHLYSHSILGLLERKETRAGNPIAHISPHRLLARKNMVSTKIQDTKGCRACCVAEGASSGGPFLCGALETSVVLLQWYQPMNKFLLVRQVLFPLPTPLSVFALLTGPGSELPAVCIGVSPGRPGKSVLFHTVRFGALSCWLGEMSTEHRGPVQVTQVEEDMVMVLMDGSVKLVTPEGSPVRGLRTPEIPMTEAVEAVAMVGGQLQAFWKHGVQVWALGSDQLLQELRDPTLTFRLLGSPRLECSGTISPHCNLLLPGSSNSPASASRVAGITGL

The test has as its target T1, human recombinant HPK1 (Homo sapiens, UniProt Q92918).
T1 construct: purchased BPS Bioscience
The test can be described thus: Inhibitory activity against human recombinant HPK1 (TR-FRET). It is filed as biochemical. The note with it: ULight-p70S6K peptide, ATP at Km, room temperature, 1 hour, 0.32 to 1000 nM compound. The method, boiled down: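 Recombinant human HPK1 with ULight-p70S6K peptide and ATP at Km, 1 h at room temperature in HEPES pH 7.4 buffer with Mg2+, Mn2+, EGTA, DTT; compounds 0.32–1000 nM final. EDTA stop, Eu-anti-phosphopeptide TR-FRET read (665 nm); IC50 from % inhibition versus DMSO, binned A–D at 10, 50, 100 nM.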
As to `N[C@H]1CCCN(c2cc(Nc3ccnc(-c4cc5nccnc5cc4F)n3)ncc2C#Cc2cnn(C(F)(F)F)c2)C1` [Example 115, (S)-N-(4-(3-aminopiperidin-1-yl)-5-((1-(trifluoromethyl)-1H-pyrazol-4-yl)ethynyl)pyridin-2-yl)-2-(7-fluoroquinoxalin-6-yl)pyrimidin-4-amine hydrochloride], the concentration for half-maximal inhibition (IC50) is ≤ 10 nM. The value for `COCCCn1cc(-c2cnc(Nc3ccnc(-c4c(F)cccc4OC)n3)cc2N2CCC[C@H](N)C2)cn1` [Example 116, (S)-N-(4-(3-aminopiperidin-1-yl)-5-(1-(3-methoxypropyl)-1H-pyrazol-4-yl)pyridin-2-yl)-2-(2-fluoro-6-methoxyphenyl)pyrimidin-4-amine hydrochloride] was ≤ 10 nM; that for `COc1cccc(F)c1-c1nccc(Nc2cc(N3CCC4(CCN(C)C4)CC3)c(-c3cnn(C4CCOCC4)c3)cn2)n1` [Example 117, 2-(2-fluoro-6-methoxyphenyl)-N-(4-(2-methyl-2,8-diazaspiro[4.5]decan-8-yl)-5-(1-(tetrahydro-2H-pyran-4-yl)-1H-pyrazol-4-yl)pyridin-2-yl)pyrimidin-4-amine] was ≤ 10 nM; that for `COc1cccc(F)c1-c1nccc(Nc2cc(N3CCC[C@H](N)C3)c(-c3ccc(N(C)C)nc3)cn2)n1` [Example 118, (S)-4-(3-aminopiperidin-1-yl)-N^6-(2-(2-fluoro-6-methoxyphenyl)pyrimidin-4-yl)-N^6′,N^6′-dimethyl-[3,3′-bipyridin]-6,6′-diamine hydrochloride] was ≤ 10 nM. The same measure for `COc1cccc(F)c1-c1nccc(Nc2cc(N3CCC[C@H](N)C3)c(-c3ccc(N4CCCC4)nc3)cn2)n1` [Example 119, (S)-4-(3-aminopiperidin-1-yl)-N-(2-(2-fluoro-6-methoxyphenyl)pyrimidin-4-yl)-6′-(pyrrolidin-1-yl)-[3,3′-bipyridin]-6-amine hydrochloride]: ≤ 10 nM; for `COc1cccc(F)c1-c1nccc(Nc2cc(N3CCC[C@H](N)C3)c(-c3ccc(N4CCCCC4)nc3)cn2)n1` [Example 120, (S)-4-(3-aminopiperidin-1-yl)-N-(2-(2-fluoro-6-methoxyphenyl)pyrimidin-4-yl)-6′-(piperidin-1-yl)-[3,3′-bipyridin]-6-amine hydrochloride]: ≤ 10 nM. The value for `COc1cccc(F)c1-c1nccc(Nc2cc(N3CCC[C@H](N)C3)c(-c3ccc(N4CCOCC4)nc3)cn2)n1` [Example 121, (S)-4-(3-aminopiperidin-1-yl)-N-(2-(2-fluoro-6-methoxyphenyl)pyrimidin-4-yl)-6′-morpholino-[3,3′-bipyridin]-6-amine hydrochloride] was ≤ 10 nM; that for `CN[C@H]1CCCN(c2cc(Nc3ccnc(-c4c(F)cccc4OC)n3)ncc2-c2cnn(C(F)F)c2)C1` [Example 122, (S)-N-(5-(1-(difluoromethyl)-1H-pyrazol-4-yl)-4-(3-(methylamino)piperidin-1-yl)pyridin-2-yl)-2-(2-fluoro-6-methoxyphenyl)pyrimidin-4-amine hydrochloride] was ≤ 10 nM. On to `CN[C@@H]1CCCN(c2cc(Nc3ccnc(-c4c(F)cccc4OC)n3)ncc2-c2cnn(C(F)F)c2)C1` [Example 123, (R)-N-(5-(1-(difluoromethyl)-1H-pyrazol-4-yl)-4-(3-(methylamino)piperidin-1-yl)pyridin-2-yl)-2-(2-fluoro-6-methoxyphenyl)pyrimidin-4-amine hydrochloride], for which the IC50 fell in the range of 10 to 50 nM.

`CN[C@H]1CCN(c2cc(Nc3ccnc(-c4c(F)cccc4OC)n3)ncc2-c2cnn(C3CCOCC3)c2)C1` [Example 124, (S)-2-(2-fluoro-6-methoxyphenyl)-N-(4-(3-(methylamino)pyrrolidin-1-yl)-5-(1-(tetrahydro-2H-pyran-4-yl)-1H-pyrazol-4-yl)pyridin-2-yl)pyrimidin-4-amine]: the IC50 is ≤ 10 nM.

Regarding `CCN[C@H]1CCN(c2cc(Nc3ccnc(-c4c(F)cccc4OC)n3)ncc2-c2cnn(C3CCOCC3)c2)C1` [Example 125, (S)-N-(4-(3-(ethylamino)pyrrolidin-1-yl)-5-(1-(tetrahydro-2H-pyran-4-yl)-1H-pyrazol-4-yl)pyridin-2-yl)-2-(2-fluoro-6-methoxyphenyl)pyrimidin-4-amine], the IC50 is ≤ 10 nM. The same measure for `COc1cccc(F)c1-c1nccc(Nc2cc(N3CC[C@@H](NC(C)=O)C3)c(-c3cnn(C4CCOCC4)c3)cn2)n1` [Example 126, (R)-N-(1-(2-((2-(2-fluoro-6-methoxyphenyl)pyrimidin-4-yl)amino)-5-(1-(tetrahydro-2H-pyran-4-yl)-1H-pyrazol-4-yl)pyridin-4-yl)pyrrolidin-3-yl)acetamide]: 10 to 50 nM; for `N[C@H]1CCCN(c2cc(Nc3cccc(N4CCOC4=O)n3)ncc2-c2cnn(C3CCOCC3)c2)C1` [Example 127, (S)-3-(6-((4-(3-aminopiperidin-1-yl)-5-(1-(tetrahydro-2H-pyran-4-yl)-1H-pyrazol-4-yl)pyridin-2-yl)amino)pyridin-2-yl)oxazolidin-2-one hydrochloride]: 10 to 50 nM; for `COc1cccc(F)c1-c1nccc(Nc2cc(N3CC[C@H](NC(C)=O)C3)c(-c3cnn(C4CCOCC4)c3)cn2)n1` [Example 128, (S)-N-(1-(2-((2-(2-fluoro-6-methoxyphenyl)pyrimidin-4-yl)amino)-5-(1-(tetrahydro-2H-pyran-4-yl)-1H-pyrazol-4-yl)pyridin-4-yl)pyrrolidin-3-yl)acetamide]: > 100 nM. Turning to `COc1cccc(F)c1-c1nc(Nc2cc(N3CCC[C@H](N)C3)c(-c3cnn(C4CCOCC4)c3)cn2)ccc1C(N)=O` [Example 129, 6-((4-((S)-3-aminopiperidin-1-yl)-5-(1-(tetrahydro-2H-pyran-4-yl)-1H-pyrazol-4-yl)pyridin-2-yl)amino)-2-(2-fluoro-6-methoxyphenyl)nicotinamide hydrochloride], the IC50 is ≤ 10 nM.

For `COc1cccc(F)c1-c1nc(Nc2cc(N3CCC[C@H](N)C3)c(-c3cnn(C4CCOCC4)c3)cn2)ccc1C(=O)N(C)C` [Example 130, 6-((4-((S)-3-aminopiperidin-1-yl)-5-(1-(tetrahydro-2H-pyran-4-yl)-1H-pyrazol-4-yl)pyridin-2-yl)amino)-2-(2-fluoro-6-methoxyphenyl)-N,N-dimethylnicotinamide hydrochloride], the IC50 was ≤ 10 nM. The same measure for `COc1cccc(F)c1-c1nccc(Nc2cc(N3CCC[C@H](N)C3)c(-c3cn(C)nc3C(F)(F)F)cn2)n1` [Example 131, (S)-N-(4-(3-aminopiperidin-1-yl)-5-(1-methyl-3-(trifluoromethyl)-1H-pyrazol-4-yl)pyridin-2-yl)-2-(2-fluoro-6-methoxyphenyl)pyrimidin-4-amine hydrochloride]: 50 to 100 nM. With `COc1cccc(F)c1-c1nccc(Nc2cc(N3CCC[C@H](N)C3)c(-c3cnn(CC(=O)N(C)C)c3)cn2)n1` [Example 132, (S)-2-(4-(4-(3-aminopiperidin-1-yl)-6-((2-(2-fluoro-6-methoxyphenyl)pyrimidin-4-yl)amino)pyridin-3-yl)-1H-pyrazol-1-yl)-N,N-dimethylacetamide hydrochloride], the IC50 is ≤ 10 nM. The value for `COc1cccc(F)c1-c1nccc(Nc2cc(N3CCC[C@H](N)C3)c(-c3cnn(CCO)c3)cn2)n1` [Example 133, (S)-2-(4-(4-(3-aminopiperidin-1-yl)-6-((2-(2-fluoro-6-methoxyphenyl)pyrimidin-4-yl)amino)pyridin-3-yl)-1H-pyrazol-1-yl)ethan-1-ol hydrochloride] was ≤ 10 nM. The value for `COc1cccc(F)c1-c1nccc(Nc2cc(N3CCC[C@H](N)C3)c(-c3cnn(CC(F)F)c3)cn2)n1` [Example 134, (S)-N-(4-(3-aminopiperidin-1-yl)-5-(1-(2,2-difluoroethyl)-1H-pyrazol-4-yl)pyridin-2-yl)-2-(2-fluoro-6-methoxyphenyl)pyrimidin-4-amine hydrochloride] was ≤ 10 nM; that for `COc1cccc(F)c1-c1nccc(Nc2cc(N3CCC4(CCN(C)C4)CC3)c(-c3cnn(C(F)F)c3)cn2)n1` [Example 135, N-(5-(1-(difluoromethyl)-1H-pyrazol-4-yl)-4-(2-methyl-2,8-diazaspiro[4.5]decan-8-yl)pyridin-2-yl)-2-(2-fluoro-6-methoxyphenyl)pyrimidin-4-amine] was ≤ 10 nM. The same measure for `COc1cccc(F)c1-c1nccc(Nc2cc(N3CCC4(CCN(C)C4)CC3)c(-c3ccc(N4CCOCC4)nc3)cn2)n1` [Example 137, N-(2-(2-fluoro-6-methoxyphenyl)pyrimidin-4-yl)-4-(2-methyl-2,8-diazaspiro[4.5]decan-8-yl)-6′-morpholino-[3,3′-bipyridin]-6-amine]: ≤ 10 nM. Turning to `N[C@H]1CCCN(c2cc(Nc3cccc(N4CCOC4=O)n3)ncc2-c2ccc(N3CCOCC3)nc2)C1` [Example 138, (S)-3-(6-((4-(3-aminopiperidin-1-yl)-6′-morpholino-[3,3′-bipyridin]-6-yl)amino)pyridin-2-yl)oxazolidin-2-one hydrochloride], the IC50 is 50 to 100 nM. For `COc1cccc(F)c1-c1nc(Nc2cc(N3CCC[C@H](O)C3)c(C#CC3CCOCC3)cn2)ccc1C(=O)O` [Example 139, 2-(2-fluoro-6-methoxyphenyl)-6-((4-((S)-3-hydroxypiperidin-1-yl)-5-((tetrahydro-2H-pyran-4-yl)ethynyl)pyridin-2-yl)amino)nicotinic acid], the IC50 was ≤ 10 nM. The same measure for `COc1cccc(F)c1-c1nc(Nc2cc(N3CCC[C@H](O)C3)c(C#CC3CCOCC3)cn2)ccc1C(N)=O` [Example 140, 2-(2-fluoro-6-methoxyphenyl)-6-((4-((S)-3-hydroxypiperidin-1-yl)-5-((tetrahydro-2H-pyran-4-yl)ethynyl)pyridin-2-yl)amino)nicotinamide]: ≤ 10 nM.
